Values of other authors in patent publication US20260110003A1 (Solugen, Inc., priority 2022, published 2026).

B1: ZmPDC: Zymomonas mobilis pyruvate decarboxylase (protein, UniProt P06672 1-568, looked up)
Pyruvate decarboxylase: MSYTVGTYLAERLVQIGLKHHFAVAGDYNLVLLDNLLLNKNMEQVYCCNELNCGFSAEGYARAKGAAAAVVTYSVGALSAFDAIGGAYAENLPVILISGAPNNNDHAAGHVLHHALGKTDYHYQLEMAKNITAAAEAIYTPEEAPAKIDHVIKTALREKKPVYLEIACNIASMPCAAPGPASALFNDEASDEASLNAAVEETLKFIANRDKVAVLVGSKLRAAGAEEAAVKFADALGGAVATMAAAKSFFPEENPHYIGTSWGEVSYPGVEKTMKEADAVIALAPVFNDYSTTGWTDIPDPKKLVLAEPRSVVVNGIRFPSVHLKDYLTRLAQKVSKKTGALDFFKSLNAGELKKAAPADPSAPLVNAEIARQVEALLTPNTTVIAETGDSWFNAQRMKLPNGARVEYEMQWGHIGWSVPAAFGYAVGAPERRNILMVGDGSFQLTAQEVAQMVRLKLPVIIFLINNYGYTIEVMIHDGPYNNIKNWDYAGLMEVFNGNGGYDSGAGKGLKAKTGGELAEAIKVALANTDGPTLIECFIGREDCTEELVKWGKRVAAANSRKPVNKLL

Columns and labels:
[1] = for Prefers Phase: aqueous (Aq) or organic (Org) phase in the MPER; for LogP: partition coefficient, <0 preference for aqueous, >0 for organic
[2] = relative to VvSucA

Row | Molecule | Prefers Phase [1] | LogP [1] | more acetoin produced than VvSucA [2] [%]
1 | CC=O [Acetaldehyde] | Aq | −0.34 | 
2 | CCO [Ethanol] | Both |  | 
3 | CCOC(=O)C(C)=O [Ethyl Pyruvate] | Org | 0.4 | 
4 | CC(=O)C(=O)O [Pyruvate ion] | Aq | <<0 | 
5 | CC(=O)C(=O)O [Pyruvic Acid] | Aq | −0.3 | 
6 | B1 |  |  | 57
